The values below come from US20050267073A1, “Triheterocyclic compounds, compositions, and methods for treating cancer or viral diseases” (priority 2004, published 2005).

Like-named read-outs stand apart in the source and are kept apart here.

As a reminder, the IC50 is the point on the concentration scale where inhibition reaches its midpoint.

The test system of assay [1] is C33A cervical carcinoma cells. As to the kind of experiment: cells. Type of assay: cell-based. As to conditions: Homo sapiens, C-33-A, read-out: IC50 (μM) C33A, Effect on Cancer Cells Viability. From the text:
(§1) […]. […] […]. The total dimethyl sulfoxide on the cells was 1%. […] […].
(§2) As depicted in Table 4, these compounds were efficient in decreasing cellular ATP levels in HI 299 and C33A cancer cell lines. Nevertheless, these compounds are believed to have utility in the in vivo methods of the invention, i.e., treatment and prevention of cancer and viral infections, respectively. It should be noted that, although this cell-based assay is believed to be indicative of anti-oncogenic activity in vivo, it is not the only useful assay for evaluating the anti-oncogenic activity of Triheterocyclic Compounds of the invention. In addition, the anti-viral and other biological activity of compounds of the invention can be determined and evaluated in other assay systems known to the skilled artisan.

Assay [2] has as its system H1299 human non-small cell lung cancer cells. In words: Cell viability by cellular ATP levels (ViaLight), H1299 cells. Type of assay: cell-based. To be noted: Homo sapiens.
Text: as §1, §2

The mark [3] stands for this setting: C33A, cellular ATP levels as described in Example 2.
Where [4] appears, read: NCI-H1299, H1299, cellular ATP levels as described in Example 2, read-out: IC50 (μM) H1299, Effect on Cancer Cells Viability.
[5] abbreviates: NCI-H1299, read-out: IC50 (μM) H1299, Effect on Cancer Cells Viability.

As to `COC1=CC(c2cc3ccccc3[nH]2)=N/C1=C(\C)c1[nH]c(C)cc1C` [Compound 47, 2-{5-[1-(3,5-Dimethyl-1H-pyrrol-2-yl)-ethylidene]-4-methoxy-5H-pyrrol-2-yl)-1H-indole], the values for the IC50 in assay [1] (setting [3]) and in assay [2] (setting [4]) were 8.28 µM and 9.65 µM, respectively.
In the same order, the values of `COC1=CC(c2cc3ccccc3n2COC(=O)C(C)(C)C)=N/C1=C\c1[nH]c(C)cc1C` [Compound 64, 2,2-Dimethyl-propionic acid 2-[5-(3,5-dimethyl-1H-pyrrol-2-ylmethylene)-4-methoxy-5H-pyrrol-2-yl]-indol-1-ylmethyl ester] are 14.2 µM and 13.3 µM.
Take `Cc1cc(C)c(/C=C2\N=C(c3cc4ccc(O)cc4[nH]3)C=C2OC(C)C)[nH]1` [Compound 56, 2-[5-(3,5-Dimethyl-1H-pyrrol-2-ylmethylene)-4-isopropoxy-5H-pyrrol-2-yl]-1H-indol-6-ol]: the IC50 in assay [1] (setting [3]) was determined as 2.54 µM; in assay [2] (setting [4]) it was 5.96 µM.
As to `COC1=CC(c2cc3ccccc3n2CCO)=N/C1=C\c1[nH]c(C)cc1C` [Compound 40, 2-{2-[5-(3,5-Dimethyl-1H-pyrrol-2-ylmethylene)-4-methoxy-5H-pyrrol-2-yl]-indol-1-yl}-ethanol], the results for the IC50 in assay [1] (setting [3]) and in assay [2] (setting [4]) were 7.17 µM and 8.46 µM, respectively.
For the compound `COC1=CC(c2cc3cc(Br)ccc3[nH]2)=N/C1=C\c1[nH]c(C)cc1C` [Compound 7, 5-Bromo-2-[5-(3,5-dimethyl-1H-pyrrol-2-ylmethylene)-4-methoxy-5H-pyrrol-2-yl]-1H-indole], the IC50 in assay [1] (setting [3]) is 2.23 µM; in assay [2] (setting [4]), 1.73 µM.
The like results for `Cc1cc(C)c(/C=C2\N=C(c3cc4ccccc4[nH]3)C=C2O)[nH]1` [Compound 50, 2-(3,5-Dimethyl-1H-pyrrol-2-ylmethylene)-5-(1H-indol-2-yl)-2H-pyrrol-3-ol] were, in that order, 0.509 µM and 1.21 µM.
In the same order, the values of `Cc1cc(C)c(/C=C2\N=C(c3cc4ccc(Cl)cc4[nH]3)C=C2OC(C)C)[nH]1` [Compound 46, 6-Chloro-2-[5-(3,5-dimethyl-1H-pyrrol-2-ylmethylene)-4-isopropoxy-5H-pyrrol-2-yl]-1H-indole] are 0.261 µM and 0.245 µM.
In the case of `CCOC(=O)COC1=CC(c2cc3ccccc3[nH]2)=N/C1=C\c1[nH]c(C)cc1C` [Compound 53, [2-(3,5-Dimethyl-1H-pyrrol-2-ylmethylene)-5-(1H-indol-2-yl)-2H-pyrrol-3-yloxy]-acetic acid ethyl ester], the IC50 in assay [1] was found to be 10.2 µM; in assay [2] (setting [5]), 10.6 µM.
Consider `COC1=CC(c2cc3cc(OC)ccc3[nH]2)=N/C1=C\c1[nH]c(C)cc1C` [Compound 15, 2-[5-(3,5-Dimethyl-1H-pyrrol-2-ylmethylene)-4-methoxy-5H-pyrrol-2-yl]-5-methoxy-1H-indole], for which the IC50 stood at 1.44 µM in assay [1] (setting [3]) and 0.935 µM in assay [2] (setting [4]).
As to `COC(=O)CCc1c(C)[nH]c(/C=C2\N=C(c3cc4ccccc4[nH]3)C=C2OC)c1C` [Compound 63, 3-{5-[5-(1H-Indol-2-yl)-3-methoxy-pyrrol-2-ylidenemethyl]-2,4-dimethyl-1H-pyrrol-3-yI}-propionic acid methyl ester], the IC50 came to 0.548 µM in assay [1] and 0.753 µM in assay [2] (setting [5]).
As for `Cc1cc(C)c(/C=C2\N=C(c3cc4ccc(F)cc4[nH]3)C=C2OC(C)C)[nH]1` [Compound 45, 2-[5-(3,5-Dimethyl-1H-pyrrol-2-ylmethylene)-4-isopropoxy-5H-pyrrol-2-yl]-6-fluoro-1H-indole], the half-inhibitory concentration (IC50) in assay [1] (setting [3]) came out at 0.716 µM; in assay [2] (setting [4]), 0.887 µM.
In the same order, the values of `COC1=CC(c2cc3cc(OC)c(OC)cc3[nH]2)=N/C1=C\c1[nH]c(C)cc1C` [Compound 4, 2-[5-(3,5-Dimethyl-1H-pyrrol-2-ylmethylene)-4-methoxy-5H-pyrrol-2-yl]-5,6-dimethoxy-1H-indole] are 0.25 µM and 0.215 µM.
The like results for `COC1=CC(c2cc3ccccc3n2C(=O)N(C)C)=N/C1=C\c1[nH]c(C)cc1C` [Compound 39, 2-[5-(3,5-Dimethyl-1H-pyrrol-2-ylmethylene)-4-methoxy-5H-pyrrol-2-yl]-indole-1-carboxylic acid dimethylamide] were, in that order, 2.95 µM and 5.67 µM.
On to `CCOC(=O)C(=O)c1c(C)[nH]c(/C=C2\N=C(c3[nH]c4ccccc4c3C(=O)C(=O)OCC)C=C2OC)c1C` [Compound 20, {2-[5-(4-Ethoxyoxalyl-3,5-dimethyl-1H-pyrrol-2-ylmethylene)-4-methoxy-5H-pyrrol-2-yl]-1H-indol-3-yl}-oxo-acetic acid ethyl ester], for which the results for the IC50 in assay [1] (setting [3]) and in assay [2] (setting [4]) were 7.23 µM and 7.98 µM, respectively.
In the same order, the values of `COC1=CC(c2[nH]c3ccccc3c2CO)=N/C1=C\c1[nH]c(C)cc1C` [Compound 37] are 1.29 µM and 1.35 µM.
The like results for `Cc1cc(C)c(/C=C2\N=C(c3cc4c(OC(=O)OC(C)(C)C)cccc4[nH]3)C=C2OC(C)C)[nH]1` [Compound 38, Carbonic acid tert-butyl ester 2-[5-(3,5-dimethyl-1H-pyrrol-2-ylmethylene)-4-isopropoxy-5H-pyrrol-2-yl]-1H-indol-4-yl ester] were, in that order, 0.226 µM and 0.342 µM.
The like results for `C=CCNCc1c(C2=N/C(=C\c3[nH]c(C)cc3C)C(OC)=C2CO)[nH]c2ccccc12` [Compound 13, [2-(3-Allylaminomethyl-1H-indol-2-yl)-5-(3,5-dimethyl-1H-pyrrol-2-ylmethylene)-4-methoxy-5H-pyrrol-3-yl]-methanol] were, in that order, 0.44 µM and 0.717 µM.
For the compound `COC1=CC(c2[nH]c3ccccc3c2C(=O)NCCCO)=N/C1=C\c1[nH]c(C)cc1C` [Compound 48, 2-[5-(3,5-Dimethyl-1H-pyrrol-2-ylmethylene)-4-methoxy-5H-pyrrol-2-yl]-1H-indole-3-carboxylic acid (3-hydroxy-propyl)-amide], the IC50 is 11.1 µM in assay [1] (setting [3]) and 50 µM in assay [2] (setting [4]).
The like results for `COC1=CC(c2cc3ccccc3[nH]2)=N/C1=C\c1[nH]c(C)c(I)c1C` [Compound 2, 2-[5-(4-Iodo-3,5-dimethyl-1H-pyrrol-2-ylmethylene)-4-methoxy-5H-pyrrol-2-yl]-1H-indole] were, in that order, 0.65 µM and 0.53 µM.
The like results for `CNCc1c(C2=N/C(=C\c3[nH]c(C)cc3C)C(OC)=C2CO)[nH]c2ccccc12` [Compound 10, [5-(3,5-Dimethyl-1H-pyrrol-2-ylmethylene)-4-methoxy-2-(3-methylaminomethyl-1H-indol-2-yl)-5H-pyrrol-3-yl]-methanol] were, in that order, 0.25 µM and 0.493 µM.
`COC1=CC(c2[nH]c3ccccc3c2C(=O)c2ccsc2)=N/C1=C\c1[nH]c(C)cc1C` [Compound 12, {2-[5-(3,5-Dimethyl-1H-pyrrol-2-ylmethylene)-4-methoxy-5H-pyrrol-2-yl]-1H-indol-3-yl}-thiophen-3-yl-methanone]: the IC50 in assay [1] (setting [3]) amounted to 3.6 µM; in assay [2] (setting [4]) it was 2.95 µM.
The like results for `COC1=CC(c2[nH]c3ccccc3c2CN2CCN(c3ccccc3)CC2)=N/C1=C\c1[nH]c(C)cc1C` [Compound 8, 2-[5-(3,5-Dimethyl-1H-pyrrol-2-ylmethylene)-4-methoxy-5H-pyrrol-2-yl]-3-(4-phenyl-piperazin-1-ylmethyl)-1H-indole] were, in that order, 1.76 µM and 1.88 µM.
The like results for `COC1=CC(c2cc3ccccc3[nH]2)=N/C1=C\c1[nH]ccc1OC` [Compound 3, 2-[4-Methoxy-5-(3-methoxy-1H-pyrrol-2-ylmethylene)-5H-pyrrol-2-yl]-1H-indole] were, in that order, 0.52 µM and 0.3 µM.
The like results for `COC1=CC(c2cc3cc(OC)ccc3n2C(=O)OC(C)(C)C)=N/C1=C\c1[nH]c(C)cc1C` [Compound 30, 2-[5-(3,5-Dimethyl-1H-pyrrol-2-ylmethylene)-4-methoxy-5H-pyrrol-2-yl]-5-methoxy-indole-1-carboxylic acid tert-butyl ester] were, in that order, 50 µM and 50 µM.
In the case of `COC1=CC(c2cc3ccccc3n2C(=O)c2ccc(Br)cc2)=N/C1=C/c1[nH]c(C)cc1C` [Compound 55, (4-Bromo-phenyl)-{2-[5-(3,5-dimethyl-1H-pyrrol-2-ylmethylene)-4-methoxy-5H-pyrrol-2-yl]-indol-1-yl}-methanone], the IC50 in assay [1] (setting [3]) and in assay [2] (setting [4]) was 0.173 µM throughout.
Take `COC1=CC(c2cc3ccccc3n2C(=O)Nc2ccc(N(C)C)cc2)=N/C1=C\c1[nH]c(C)cc1C` [Compound 52, 2-[5-(3,5-Dimethyl-1H-pyrrol-2-ylmethylene)-4-methoxy-5H-pyrrol-2-yl]-indole-1-carboxylic acid (4-dimethylamino-phenyl)-amide]: the IC50 in assay [1] (setting [3]) worked out at 1.11 µM; in assay [2] (setting [4]), 1.04 µM.
The like results for `COC1=C(CO)C(c2[nH]c3ccccc3c2CNC(C)C)=N/C1=C\c1[nH]c(C)cc1C` [Compound 11, {5-(3,5-Dimethyl-1H-pyrrol-2-ylmethylene)-2-[3-(isopropylamino-methyl)-1H-indol-2-yl]-4-methoxy-5H-pyrrol-3-yl}-methanol] were, in that order, 0.307 µM and 0.983 µM.
Consider `COC1=CC(c2[nH]c3ccccc3c2C(=O)c2ccoc2)=N/C1=C\c1[nH]c(C)cc1C` [Compound 27, {2-[5-(3,5-Dimethyl-1H-pyrrol-2-ylmethylene)-4-methoxy-5H-pyrrol-2-yl]-1H-indol-3-yl}-furan-3-yl-methanone], for which the IC50 in assay [1] (setting [3]) worked out at 10 µM; in assay [2] (setting [4]), 15.3 µM.
